± gives the expanded uncertainty stated by the source.
What was measured:
[1] = refractive index (Na D-line) (dimensionless); settings: 101.33 kPa, Liquid, Standard Abbe refractometry
[2] = for mass density: 101.33 kPa, Buoyancy - hydrostatic balance; for mass density / surface tension liquid-gas: Liquid; for surface tension liquid-gas: Maximal bubble pressure; for Glass transition temperature: DTA

Row | SMILES | refractive index ([1]; 288.15 K) | refractive index ([1]; 293.15 K) | refractive index ([1]; 303.15 K) | refractive index ([1]; 308.15 K) | refractive index ([1]; 313.15 K) | refractive index ([1]; 318.15 K) | refractive index ([1]; 323.15 K) | refractive index ([1]; 328.15 K) | refractive index ([1]; 333.15 K) | mass density ([2]; 288.15 K) [kg/m3] | surface tension liquid-gas ([2]; 288.15 K) [mN/m] | mass density ([2]; 293.15 K) [kg/m3] | surface tension liquid-gas ([2]; 293.15 K) [mN/m] | mass density ([2]; 303.15 K) [kg/m3] | surface tension liquid-gas ([2]; 303.15 K) [mN/m] | mass density ([2]; 308.15 K) [kg/m3] | surface tension liquid-gas ([2]; 308.15 K) [mN/m] | mass density ([2]; 313.15 K) [kg/m3] | surface tension liquid-gas ([2]; 313.15 K) [mN/m] | mass density ([2]; 318.15 K) [kg/m3] | other results
1 | CC(O)C(=O)[O-].CCn1cc[n+](C)c1 [1-ethyl-3-methylimidazolium lactate] | 1.5026 ± 0.0005 | 1.5014 ± 0.0005 | 1.4987 ± 0.0005 | 1.4977 ± 0.0005 | 1.4961 ± 0.0005 | 1.495 ± 0.0005 | 1.4936 ± 0.0005 | 1.4926 ± 0.0005 | 1.4913 ± 0.0005 | 1192.9 ± 1.2 | 49.5 ± 0.6 | 1189.8 ± 1.1 | 49.2 ± 0.6 | 1183.4 ± 1.1 | 48.4 ± 0.6 | 1180.1 ± 1.1 | 48 ± 0.6 | 1176.4 ± 1.1 | 47.7 ± 0.6 | 1173.4 ± 1.1 | surface tension liquid-gas ([2]; 318.15 K): 47.4 ± 0.6 mN/m; mass density ([2]; 323.15 K): 1170.4 ± 1.1 kg/m3; surface tension liquid-gas ([2]; 323.15 K): 47 ± 0.6 mN/m; mass density ([2]; 328.15 K): 1167.1 ± 1.1 kg/m3; surface tension liquid-gas ([2]; 328.15 K): 46.6 ± 0.6 mN/m; mass density ([2]; 333.15 K): 1163.6 ± 1.1 kg/m3; surface tension liquid-gas ([2]; 333.15 K): 46.3 ± 0.6 mN/m; Glass transition temperature [2]: -81.30 ± 2 °C
2 | CC(O)C(=O)[O-].CCCCCn1cc[n+](C)c1 [1-pentyl-3-methylimidazolium lactate] | 1.494 ± 0.0005 | 1.4928 ± 0.0005 | 1.4901 ± 0.0005 | 1.4891 ± 0.0005 | 1.4875 ± 0.0005 | 1.4864 ± 0.0005 | 1.485 ± 0.0005 | 1.4841 ± 0.0005 | 1.4827 ± 0.0005 | 1112.6 ± 1 | 43.1 ± 0.5 | 1109 ± 1 | 42.7 ± 0.5 | 1102.7 ± 1 | 42 ± 0.5 | 1099.4 ± 1 | 41.5 ± 0.5 | 1095.3 ± 1 | 41.2 ± 0.5 | 1092.9 ± 1 | surface tension liquid-gas ([2]; 318.15 K): 40.9 ± 0.5 mN/m; mass density ([2]; 323.15 K): 1089.9 ± 1 kg/m3; surface tension liquid-gas ([2]; 323.15 K): 40.5 ± 0.5 mN/m; mass density ([2]; 328.15 K): 1086.4 ± 1 kg/m3; surface tension liquid-gas ([2]; 328.15 K): 40.1 ± 0.5 mN/m; mass density ([2]; 333.15 K): 1083.3 ± 1 kg/m3; surface tension liquid-gas ([2]; 333.15 K): 39.8 ± 0.5 mN/m; Glass transition temperature [2]: -78.20 ± 2 °C
